Consider three compounds from publication PMC12064818, “A general assay platform to study protein pharmacology using ligand-dependent structural dynamics” (Nature Communications, 2025).

Structures are written as SMILES.

For one experiment, the target named is C. elegans iPGM-C-HiBiT (Caenorhabditis elegans, UniProt G5EFZ1). Description: C. elegans iPGM fluorescent polarization competition-binding assay (Ce-2d-FL probe). More on the design: cDNA, containing Phe2-Ile539 and the 6xHis tag; His6 (C); made in house; host or cells: E. coli. The protocol:
All reagents were prepared on ice, protected from light. […] Compounds and controls were added with a pintool to each plate as described in Supplementary Data 8. Assay plates were incubated for 20 min at ambient temperature. […] Microtiter plates were allowed to reach equilibrium (30 min incubation at ambient temperature) while protected from light. Fluorescence polarization was measured with the same reader settings as above. Data were row-wise normalized to no enzyme control as -100% activity and enzyme + DMSO vehicle control as neutral control. See Supplementary Table 7 for additional details.
Supplementary Table 7. Protocol for Co- factor independent phosphoglycerate mutase (iPGM) fluorescent polarization competition-biding assay
Supplementary Table 7: Protocol for C. elegans co-factor independent phosphoglycerate m utase (iPGM) fluorescent polarization com petition-binding assay
Sequence Param eter Value Description
No enzym e control (colum n 1) and enzym e solution (10 nM Ce iPGM-C-HiBiT dialyzed 1 Reagent 4 µLagainst Zn/Mn final assay concentration) in assay buffer + 0.05% IGEPAL; black/solid bottom , m edium bind, high base plates (Greiner), dispensed with BioRaptr 2 […]
Test com pounds: m acrocyclic peptides at 5 m M stock concentration in 16- pt, 1:3 titration […]
com pounds transferred to respective colum ns with Pintool
3 Incubation 20 m in Incubate enzym e + com pounds at am bient tem p for 20 m in, protected from light 4 Pre-Read Spark Measure fluorescence polarization of fluorescein (X480, M535) on Spark m ultimode m icroplate reader […]
dispensed with BioRaptr 2
6 Incubation 30 m in Am bient tem perature, protected from light
7 Detector Spark Measure fluorescence polarization of fluorescein (X480, M535) on Spark m ultimode m icroplate reader
Assay buffer: 30 m M Tris-HCl, pH 8.0; 5 m M MgSO4; 20 m M KCl; 0.05% IGEPAL. All solutions filtered through 0.22 1 µm syringe filter prior to dispense.
Measure fluorescence polarization of fluorescein on Spark m ultimode m icroplate reader with FP protocol: Excitation […]
4/7 20.0; G-Factor “Manual” = 1.000; Blank “Not Defined”.
Advanced Settings: Flashes = 30; Gain “Optim al”; Mirror “Autom atic”; Z-position [um ] “Manual” = 20000; Settle Tim e […]
Fluorescence polarization ligand solution: 30 m M Tris-HCl, pH 8.0; 5 m M MgSO4; 20 m M KCl; 0.05% IGEPAL; 15 […]
Solution filtered through 0.22
µm syringe filter prior to dispense.

Experiment [1] deals with FLuc-N-HiBiT (firefly luciferase) (Photinus pyralis, UniProt P08659, form not given/L550V). Kind of experiment: SDR assay, FLuc-N-HiBiT. Conditions: for 10 nM FLuc-N-HiBiT + 10 mM ATP, Mean / 10 nM FLuc-N-HiBiT No ATP, Mean: Log [PTC124]. In general terms: With HiBiT, luminescence reflects the tagged protein that the partner subunit can reach.
FLuc-N-HiBiT (firefly luciferase), sequence (P08659 2-550 L550V, form open): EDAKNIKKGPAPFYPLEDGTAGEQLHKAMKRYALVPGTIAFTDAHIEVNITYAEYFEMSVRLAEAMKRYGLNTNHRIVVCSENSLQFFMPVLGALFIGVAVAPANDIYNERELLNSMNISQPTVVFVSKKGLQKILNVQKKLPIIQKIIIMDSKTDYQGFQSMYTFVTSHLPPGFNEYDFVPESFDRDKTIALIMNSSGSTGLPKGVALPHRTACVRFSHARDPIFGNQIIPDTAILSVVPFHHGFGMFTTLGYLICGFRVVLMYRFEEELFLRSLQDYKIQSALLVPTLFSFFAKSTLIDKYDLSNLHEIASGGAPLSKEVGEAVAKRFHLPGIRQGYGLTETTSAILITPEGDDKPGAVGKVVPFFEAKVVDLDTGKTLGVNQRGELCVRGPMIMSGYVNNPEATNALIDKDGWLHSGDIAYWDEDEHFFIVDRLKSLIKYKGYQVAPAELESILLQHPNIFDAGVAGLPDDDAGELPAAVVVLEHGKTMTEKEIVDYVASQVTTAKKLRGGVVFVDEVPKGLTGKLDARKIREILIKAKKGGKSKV
A further experiment addresses P. pyralis FLuc (Photinus pyralis, UniProt P08659). Description: FLuc enzymatic luminescence assay, P. pyralis FLuc. In kind it is biochemical. Particulars: FLuc enzymatic assay. The gist of the method: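 Runs with and without 10 µM ATP: compounds were pre-incubated with FLuc (1–10 nM, PBS pH 7.4) at ambient temperature, light-protected, for 30–60 min. Luminescence was imaged 5 min after adding 10 µM D-luciferin (final). Inhibition was scaled between DMSO neutral and no-enzyme controls.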

Where [2] appears, read: C. elegans iPGM-C-HiBiT FP 10 nM, ligand […] FP.

C. elegans iPGM-C-HiBiT, sequence (G5EFZ1 2-539): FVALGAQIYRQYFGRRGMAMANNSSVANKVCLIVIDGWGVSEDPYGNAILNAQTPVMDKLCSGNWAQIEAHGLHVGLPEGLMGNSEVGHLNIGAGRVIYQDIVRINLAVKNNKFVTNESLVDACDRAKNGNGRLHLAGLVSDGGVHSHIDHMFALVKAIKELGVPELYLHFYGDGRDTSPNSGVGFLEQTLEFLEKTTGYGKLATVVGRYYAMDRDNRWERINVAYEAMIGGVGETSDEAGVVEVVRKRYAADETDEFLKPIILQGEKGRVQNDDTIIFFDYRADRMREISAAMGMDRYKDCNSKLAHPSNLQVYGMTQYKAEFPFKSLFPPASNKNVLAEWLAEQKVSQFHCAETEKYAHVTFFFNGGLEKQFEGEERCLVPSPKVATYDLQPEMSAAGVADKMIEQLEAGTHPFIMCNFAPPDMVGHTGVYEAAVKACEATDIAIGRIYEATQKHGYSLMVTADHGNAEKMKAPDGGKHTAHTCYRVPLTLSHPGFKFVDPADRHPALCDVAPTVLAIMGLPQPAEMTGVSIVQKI
P. pyralis FLuc, sequence (P08659 whole entry): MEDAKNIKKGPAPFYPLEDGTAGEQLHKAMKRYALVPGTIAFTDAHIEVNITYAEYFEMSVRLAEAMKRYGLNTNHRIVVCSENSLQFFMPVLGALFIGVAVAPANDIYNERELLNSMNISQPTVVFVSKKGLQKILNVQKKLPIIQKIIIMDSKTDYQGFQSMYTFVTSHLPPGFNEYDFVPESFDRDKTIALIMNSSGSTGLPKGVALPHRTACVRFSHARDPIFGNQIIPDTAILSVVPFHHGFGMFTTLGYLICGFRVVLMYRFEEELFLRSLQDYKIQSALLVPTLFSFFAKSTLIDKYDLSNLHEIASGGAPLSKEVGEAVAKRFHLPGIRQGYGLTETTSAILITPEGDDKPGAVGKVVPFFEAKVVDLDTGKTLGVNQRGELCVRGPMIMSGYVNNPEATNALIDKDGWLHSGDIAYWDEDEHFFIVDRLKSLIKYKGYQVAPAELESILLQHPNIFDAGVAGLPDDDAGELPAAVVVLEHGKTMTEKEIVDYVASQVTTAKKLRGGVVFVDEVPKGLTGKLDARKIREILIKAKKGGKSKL

`CC(C)C[C@H](NC(=O)[C@H](Cc1ccc(O)cc1)NC(=O)[C@@H]1CSCC(=O)N[C@H](Cc2ccc(O)cc2)C(=O)N[C@@H](CC(=O)O)C(=O)N[C@@H](Cc2ccc(O)cc2)C(=O)N2CCC[C@H]2C(=O)NCC(=O)N[C@@H](CC(=O)O)C(=O)N[C@@H](Cc2ccc(O)cc2)C(=O)N1)C(=O)N[C@@H](Cc1ccc(O)cc1)C(=O)NCC(=O)N[C@H](C(=O)N[C@@H](CS)C(=O)NCC(N)=O)[C@@H](C)O` [Ce-2] had a 50% inhibitory concentration (IC50) at C. elegans iPGM-C-HiBiT of 34.7 nM. Further, on C. elegans iPGM-C-HiBiT (setting [2]), the “Standard assay statistics Ave RLU” value turned out to be 67.8 RLU, the “Standard assay statistics S:B” value is reported as 1.4, the “Standard assay statistics S:N” value is -2.4 and the “Standard assay statistics Z’” value was -0.978.

With `O=C(O)c1cccc(-c2noc(-c3ccccc3F)n2)c1` [PTC124, reference compound], the “pSDR50, FLuc-N-HiBiT (10 nM)” value in experiment [1] (0 μM ATP) stood at 6.64 ± 0.05; in experiment [1] (10 μM ATP) it was 8.07 ± 0.05. The “10 nM FLuc-N-HiBiT + 10 mM ATP, Mean” value in experiment [1] (M (SDR) -4.48) was 41609.1 RLU; in experiment [1] (M (SDR) -4.96), 42409.7 RLU; in experiment [1] (M (SDR) -5.44) it was 42866.9 RLU; in experiment [1] (M (SDR) -5.91) it was 43432.3 RLU; in experiment [1] (M (SDR) -6.39), 43449.2 RLU; in experiment [1] (M (SDR) -6.87), 43724.9 RLU. For the same compound, the “10 nM FLuc-N-HiBiT + 10 mM ATP, Mean” value in experiment [1] (M (SDR) -7.35) is reported as 42289.0 RLU; in experiment [1] (M (SDR) -7.82), 38396.4 RLU; in experiment [1] (M (SDR) -8.30) it was 32370.1 RLU; in experiment [1] (M (SDR) -8.78), 29426.2 RLU; in experiment [1] (M (SDR) -9.25) it was 28882.5 RLU; in experiment [1] (M (SDR) -9.73) it was 28374.1 RLU. The “10 nM FLuc-N-HiBiT + 10 mM ATP, Mean” value in experiment [1] (M (SDR) -10.21) is on record as 28052.8 RLU; in experiment [1] (M (SDR) -10.69), 27509.0 RLU; in experiment [1] (M (SDR) -11.16) it was 27726.0 RLU; in experiment [1] (M (SDR) -11.64), 27670.3 RLU. Besides, the “10 nM FLuc-N-HiBiT No ATP, Mean” value was 44446.2 RLU in experiment [1] (M (SDR) -4.48); 44381.0 RLU in experiment [1] (M (SDR) -4.96); 43085.6 RLU in experiment [1] (M (SDR) -5.44); 42891.6 RLU in experiment [1] (M (SDR) -5.91); 36744.1 RLU in experiment [1] (M (SDR) -6.39); 28974.8 RLU in experiment [1] (M (SDR) -6.87). The “10 nM FLuc-N-HiBiT No ATP, Mean” value in experiment [1] (M (SDR) -7.35) is 26642.9 RLU; in experiment [1] (M (SDR) -7.82), 23375.2 RLU; in experiment [1] (M (SDR) -8.30), 21721.8 RLU; in experiment [1] (M (SDR) -8.78) it was 22027.4 RLU; in experiment [1] (M (SDR) -9.25), 22062.2 RLU; in experiment [1] (M (SDR) -9.73), 21924.6 RLU. Moreover, the “10 nM FLuc-N-HiBiT No ATP, Mean” value in experiment [1] (M (SDR) -10.21) was determined as 22527.7 RLU; in experiment [1] (M (SDR) -10.69) it was 22231.2 RLU; in experiment [1] (M (SDR) -11.16) it was 21138.2 RLU; in experiment [1] (M (SDR) -11.64), 21494.9 RLU.

Take `CC(CNC(=O)C1CCN(C(=O)c2ncn3c2COC(c2ccccc2)C3)CC1)c1ccccc1` (centres unmarked) [compound 00449795]: on P. pyralis FLuc (Clade S follow-up), the “Efficacy (%) FLuc E” value is listed as -95.72%. In addition, the IC50 at P. pyralis FLuc (read-out: IC50 or SDR50 (mM) FLuc E) was 0.00197 mM.

For orientation: IC50 means the concentration needed to halve the response being measured.
